The test relates to human Fab of κ-type. Description: STD-NMR binding test (saturation transfer difference NMR screening). Further details: key to NMR signal, conc 1 / NMR signal, conc 2 / NMR signal, conc 3 / NMR signal, Conc 1 (directed library) / NMR signal, Conc 2 (directed library): 0 no; 1 weak; 2 strong signal. The note with it: for NMR signal, conc 2: 100 nM protein; for NMR signal, conc 2 / NMR signal, conc 1: 0.5 mM ligand; for NMR signal, conc 1: 500 nM protein; for NMR signal, Conc 2 (directed library): 100 nM antibody; for NMR signal, Conc 1 (directed library): 500 nM antibody; for interaction with the antibody in NMR screening of directed library: two higher antibody concentrations. As to the method:
All NMR experiments were performed at 298 K on a Bruker Avance 500 MHz spectrometer. The 1D saturation transfer difference method (STD-NMR) was used as screening assay (Mayer M. and Meyer B. 1999. Characterisation of Ligand Binding by Saturation Transfer Difference NMR Spectroscopy. Angew. Chem., Int. Ed. 38: 1784-1788). […] The two spectra are recorded in the same experiment in an interleaved fashion. […] It has been shown that the method is capable of detecting ligands with dissociation constants between 10^−3 and 10^−8 M (Mayer M. and Meyer B. 1999. Characterisation of Ligand Binding by Saturation Transfer Difference NMR Spectroscopy. Angew. Chem, Int. Ed. 38: 1784-1788). The strength of the STD-NMR signal depends upon several factors including protein size, offset and duration of the on-resonance irradiation, the dissociation rate constant and the excess of ligand. The STD-NMR method is advantageous in that the detection limits can be tuned for binding by varying the protein concentration while keeping the ligand concentration constant. Under such conditions, at higher protein concentrations the weak to medium binders are detected, whereas at lower protein concentrations only medium binders are detected. For instance, it has been shown before for another enzyme system that both μM and mM binders were detected at a protein concentration of 35 μM whereas only μM binders were detected at protein concentrations of 1 μM and 100 nM (Peng J. W., Lepre C. A., Fejzo J., Abdul-Manan N. and Moore J. M. 2001, Nuclear Magnetic Resonance-Based Approaches for Lead Generation in Drug Discovery, Methods in Enzymology. 338: 202-230). It should be noted that the signal intensity at one specific protein concentration should not be taken as a direct measure of the binding strength. […] On the other hand the signal of the μM binder became even stronger than before (Peng J. W., Lepre C. A., Fejzo J., Abdul-Manan N. and Moore J. M. 2001, Nuclear Magnetic Resonance-Based Approaches for Lead Generation in Drug Discovery, Methods in Enzymology. 338: 202-230).
Here, three different antibody concentrations were used, namely, 0.5 μM, 100 nM and 20 nM. The antibody used was a human Fab of κ-type. In all cases ligands were tested one-by-one. On-resonance irradiation was set at 0 ppm and off-resonance irradiation was set at 40 ppm. Irradiation time in each scan was 2 s and 16K data points were collected with 1024 scans in total. Compounds for testing were dissolved in DMSOd6 to a concentration of 50 mM and 5 μL of the concentrated ligand solution was added to 495 μL buffer solution. The samples thus consisted of 0.5 mM ligand, 20 mM phosphate buffer, 100 mM NaCl and […] in D2O at pD 7.5, uncorrected reading on pH-meter. Compounds were initially tested for binding with 0.5 μM antibody. Interesting ligands were further tested with protein concentrations of 100 or 20 nM. A one-dimensional ^1H-spectrum was acquired first as reference spectrum and subsequently a saturation transfer difference (STD) spectrum was acquired. Each analysis took 60 minutes on the spectrometer.

Where a name gives a salt, the structure may show the parent alone.

For `CCn1ccnc1CC1COc2ccccc2O1` (stereo not shown) [AB_0001070, imiloxan hydrochloride], the “NMR signal, conc 2” value is 1 and the “NMR signal, conc 1” value amounted to 1.
Turning to `COC(=O)NC(=O)c1nc(-c2ccccc2)c(C)o1` [AB_0000670, methyl n-[(5-methyl-4-phenyl-1,3-oxazol-2-yl)carbonyl]carbamate], the “NMR signal, conc 2” value was determined as 0 and the “NMR signal, conc 1” value was 2.
As to `COC(=O)CCCN(C)C(=O)N(C)c1ccc(Cl)c(Cl)c1` [AB_0001255, 4-[3-(3,4-Dichloro-phenyl)-1,3-dimethyl-ureido]-butyric acid methyl ester], the “NMR signal, Conc 2 (directed library)” value came out at 2; the “NMR signal, Conc 1 (directed library)” value is given as 2; the “interaction with the antibody in NMR screening of directed library” value is reported as “strongest binding”.
As for `OC(CNCc1ccc(Cl)cc1Cl)C(F)(F)F` (stereo not shown) [AB_0001170, 3-[(2,4-dichlorobenzyl)amino]-1,1,1-trifluoro-2-propanol], the “NMR signal, conc 1” value was 0.
On to `O=C(Cc1ncon1)Nc1ccc(F)cc1F` [AB_0000690, n1-(2,4-difluorophenyl)-2-(1,2,4-oxadiazol-3-yl)acetamide], for which the “NMR signal, conc 1” value is reported as 0.
Regarding `O=C1c2ccncc2C(=O)N1c1ccc(Cl)cc1` [AB_0000610, 2-(4-chlorophenyl)-2,3-dihydro-1h-pyrrolo[3,4-c]pyridine-1,3-dione], the “NMR signal, conc 1” value was determined as 0.
With `S=C(Oc1ccccn1)c1csc(C2COc3ccccc3O2)n1` (stereo not shown) [AB_0001260, 2-pyridyl 2-(2,3-dihydro-1,4-benzodioxin-2-yl)-1,3-thiazole-4-carbothioate], the “NMR signal, conc 1” value was found to be 0.
Take `CC1CN=C(SCc2ccccc2)N1.Cl` (stereo not shown) [AB_0001080, 2-(benzylthio)-5-methyl-4,5-dihydro-1h-imidazol-3-ium chloride]: the “NMR signal, conc 1” value is on record as 0.
For `COC(=O)CCCN(C)C(=O)N(C)c1ccccc1` [AB_0001251, 4-(1,3-Dimethyl-3-phenyl-ureido)-butyric acid methyl ester], the “NMR signal, Conc 2 (directed library)” value is recorded as 0; the “NMR signal, Conc 1 (directed library)” value turned out to be 0; the “interaction with the antibody in NMR screening of directed library” value was “negative result”.
For `O=C(Cc1ncon1)Nc1ccc(F)c(F)c1F` [AB_0000630, n1-(2,3,4-trifluorophenyl)-2-(1,2,4-oxadiazol-3-yl)acetamide], the “NMR signal, conc 1” value came to 0.
`CC1(C)CC(=O)c2sc(NC(=O)c3cccnc3)nc2C1` [AB_0000750, n-(5,5-dimethyl-7-oxo-4,5,6,7-tetrahydro-benzothiazol-2-yl)-nicotinamide]: the “NMR signal, conc 1” value stood at 0.
Take `O=C(c1ccccn1)C(O)c1ccccn1` (stereo not drawn) [AB_0000510, alpha-pyridoin]: the “NMR signal, conc 1” value came to 0.
As for `CC1=NN(c2cccc(Cl)c2)C(=O)C1` [AB_0000530, 1-(3-chlorophenyl)-3-methyl-2-pyrazolin-5-one], the “NMR signal, conc 1” value was 0.
For the molecule `COC(=O)c1ccc2ccccc2c1O` [AB_0001200, methyl 1-hydroxy-2-naphthoate], the “NMR signal, conc 2” value stood at 0 and the “NMR signal, conc 1” value is 1.
For `O=C1SC(Br)C(=O)N1c1ccccc1` (stereo not shown) [AB_0000880, 5-bromo-3-phenyl-thiazolidine-2,4-dione], the “NMR signal, conc 1” value was determined as 0.
`O=C1C=CC(=O)N1c1cccc(Cl)c1` [AB_0001090, n-(3-chlorophenyl)-maleimide]: the “NMR signal, conc 2” value was found to be 0 and the “NMR signal, conc 1” value is listed as 1.
With `O=C1C(=Cc2ccccc2)C(=O)c2ccccc21` [AB_0000730, 2-benzylidene-1,3-indandione], the “NMR signal, conc 1” value is reported as 0.
For the molecule `FC(F)(F)c1cccc(-n2ccnc2)c1` [AB_0001220, 1-(3-trifluoromethylphenyl)imidazole], the “NMR signal, conc 2” value was found to be 0 and the “NMR signal, conc 1” value was 2.
Regarding `CCOC(=O)c1c[nH]c2ccccc2c1=O` [AB_0001100, ethyl 4-oxo-1,4-dihydroquinoline-3-carboxylate], the “NMR signal, conc 1” value was 0.
In the case of `O=C(c1cccs1)c1cnc2ccccn2c1=O` [AB_0001300, 3-(2-thienylcarbonyl)-4h-pyrido[1,2-a]pyrimidin-4-one], the “NMR signal, conc 2” value was 0 and the “NMR signal, conc 1” value is recorded as 1.
Turning to `O=C(Nc1ccc(F)cc1)Oc1noc(-c2ccccc2)n1` [AB_0000740, 5-phenyl-1,2,4-oxadiazol-3-yl n-(4-fluorophenyl)carbamate], the “NMR signal, conc 1” value is 0.
For `c1ccc(-c2nnc(-c3ccccn3)nn2)nc1` [AB_0000700, 3,6-di-2-pyridyl-1,2,4,5-tetrazine], the “NMR signal, conc 1” value was found to be 0.
For the molecule `COC(=O)CCCN(C)C(=O)N(C)c1ccc(F)c(F)c1` [AB_0001258, 4-[3-(3,4-Difluoro-phenyl)-1,3-dimethyl-ureido]-butyric acid methyl ester], the “NMR signal, Conc 2 (directed library)” value is 1 and the “NMR signal, Conc 1 (directed library)” value was 1.
For `O=Cc1cccc(C(F)(F)F)c1Cl` [AB_0001030, 2-chloro-3-(trifluoromethyl)benzaldehyde], the “NMR signal, conc 2” value came to 0 and the “NMR signal, conc 1” value is recorded as 1.
`O=C(O)c1ccnn(-c2ccccc2)c1=O` [AB_0001180, 3-oxo-2-phenyl-2,3-dihydro-4-pyridazinecarboxylic acid]: the “NMR signal, conc 1” value was determined as 0.
`CSCCNC(=O)c1nc2ccccc2c(=O)n1N` [AB_0001130, 3-amino-n-[2-(methylthio)ethyl]-4-oxo-3,4-dihydroquinazoline-2-carboxamide]: the “NMR signal, conc 1” value amounted to 0.
Consider `Cc1cc(C)nc(SCC(=O)Nc2ccc(F)c(Cl)c2)n1` [AB_0000580, n1-(3-chloro-4-fluorophenyl)-2-[(4,6-dimethylpyrimidin-2-yl)thio]acetamide], for which the “NMR signal, conc 2” value is 0 and the “NMR signal, conc 1” value worked out at 1.
For the molecule `O=C1C(=O)N(c2ccccc2)C(=O)N1c1ccccc1` [AB_0000540, 1,3-diphenylparabanic acid], the “NMR signal, conc 1” value was found to be 0.
For the molecule `COC(=O)CCCNC(=O)N(C)c1ccc(Cl)c(Cl)c1` [AB_0001257, 4-[3-(3,4-Dichloro-phenyl)-3-methyl-ureido]-butyric acid methyl ester], the “NMR signal, Conc 2 (directed library)” value is given as 0 and the “NMR signal, Conc 1 (directed library)” value worked out at 2.
Consider `OC(CNCc1ccc(Cl)cc1)CSc1ccccc1` (stereo not shown) [AB_0001270, 1-[(4-chlorobenzyl)amino]-3-(phenylthio)propan-2-ol], for which the “NMR signal, conc 2” value was 0 and the “NMR signal, conc 1” value is 1.
Consider `OC(CNCc1ccccc1)C(F)(F)F` (stereo not shown) [AB_0001000, 3-(benzylamino)-1,1,1-trifluoro-2-propanol], for which the “NMR signal, conc 2” value turned out to be 0 and the “NMR signal, conc 1” value amounted to 1.
On to `c1ccc(CCn2cc(-c3ccncc3)cn2)cc1` [AB_0001190, 4-[1-(2-phenylethyl)-(1h)-pyrazol-4-yl]pyridine], for which the “NMR signal, conc 2” value is 0 and the “NMR signal, conc 1” value is on record as 2.
Consider `O=C(c1ccc2ccccc2c1)n1ccnc1` [AB_0000900, 1-(2-naphthoyl)imidazole], for which the “NMR signal, conc 1” value amounted to 0.
As to `COC(=O)[C@H]1CCCN1C(=O)N(C)c1ccc(Cl)c(Cl)c1` (single isomer, unassigned) [AB_0003290, 1-[(3,4-Dichloro-phenyl)-methyl-carbamoyl]-pyrrolidine-2-carboxylic acid methyl ester (R-isomer)], the “NMR signal, Conc 2 (directed library)” value is 2 and the “NMR signal, Conc 1 (directed library)” value was 2.

(Values after patent US7645903B2, “Use of urea variants as affinity ligands” (GE Healthcare Bio-Sciences AB, priority 2002, dated 2010).)
